According to article PMC7119063 (Bioorganic & Medicinal Chemistry, 2005):
“Also recorded” adds a separate entry of the source.

What was measured:
[1] = target: SARS-CoV 3CL protease (Severe acute respiratory syndrome coronavirus, UniProt P0C6X7); format: biochemical
[2] = system: SARS-CoV; details: cited from earlier work
[3] = system: SARS-CoV; format: cell-based
[4] = system: human rhinovirus (HRV) 3C protease; details: cited from earlier work

CCOC(=O)C=CC(CC1CCNC1=O)NC(=O)C(CC(=O)C(NC(=O)c1cc(C)on1)C(C)C)Cc1ccc(F)cc1 (centres unmarked) [Compound 1a, Ethyl 4-[2-(4-fluorobenzyl)-6-methyl-5-(5-methyl-3-isoxazolyl)carbonylamino-1,4-dioxoheptylamino]-5-(2-oxo-3-pyrrolidinyl)-2-pentenoate]
inhibitory activity against SARS-CoV 3CL protease (in words) [1]: no inhibitory activity; also recorded: inactive
activity to the SARS-CoV in a cell-based assay [2]: inactive
concentration at which active as anti-SARS agent (protection from CPE) [3]: inactive
inhibition of HRV 3C protease (in words) [4]: potent inhibitor

CC(C)[C@@H]1NC(=O)[C@H](C)OC(=O)[C@@H](C(C)C)NC(=O)[C@@H](C(C)C)OC(=O)[C@H](C(C)C)NC(=O)[C@H](C)OC(=O)[C@@H](C(C)C)NC(=O)[C@@H](C(C)C)OC(=O)[C@H](C(C)C)NC(=O)[C@H](C)OC(=O)[C@@H](C(C)C)NC(=O)[C@@H](C(C)C)OC1=O [valinomycin]
EC50 [2]: 850 nM
